The numbers were not newly measured in patent publication WO2005058299A1, “Phenethanolamine derivatives for treatment of respiratory diseases” (Glaxo Group Ltd, priority 2003, dated 2005), which cites them from elsewhere.

In the data set the test system is PDE4. The conditions noted are these: IC50 for PDE4 form which binds rolipram with high affinity divided by IC50 for form which binds rolipram with low affinity.
Regarding `COC(=O)C1CC(C#N)(c2ccc(OC(F)F)c(OCC3CC3)c2)CCC1=O` (stereo not drawn) [2-carbomethoxy-4-cyano-4-(3-cyclopropylmethoxy-4-difluoromethoxyphenyl)cyclohexan-1-one], the IC50 ratio is no less than 0.1.
`COc1ccc([C@]2(C#N)CC[C@@H](C(=O)O)CC2)cc1OC1CCCC1` [cis 4-cyano-4-(3-cyclopentyloxy-4-methoxyphenyl)cyclohexan-1-carboxylic acid]: the IC50 ratio is no less than 0.1.
Turning to “c/s-[4-cyano-4-(3-cyclopropylmethoxy-4- difluoromethoxyphenyl)cyclohexan-1-ol]”, the IC50 ratio is no less than 0.1.
